Our source for the Activity and inhibition values is ChEMBL document CHEMBL1150173, “Antiviral saponins from Tieghemella heckelii” (J Nat Prod, 2002).

SMILES strings stand for the structures. Active and inactive are the calls of the source. The rule behind the calls is not given here.

The test system of data set [1] is Human immunodeficiency virus 1. Nature of the data set: Inhibition of HIV1 in wild type CHO cells mediated human HeLa-CD4+ cell fusion assessed as inhibition of syncytium formation at 20 uM by cell-cell fusion assay. It is filed as functional.
The test system of the next data set is HeLa. Nature of the data set: Cytotoxicity against human HeLa cells expressing CD4+ construct at 20 uM after 3 days by MTT assay. It is filed as cell-based. Conditions: 72 h.

As for `CC1(C)CC[C@]2(C(=O)O)[C@H](O)C[C@]3(C)C(=CC[C@@H]4[C@@]5(C)C[C@H](O)[C@H](O[C@@H]6O[C@H](C(=O)O)[C@@H](O)[C@H](O)[C@H]6O)[C@@](C)(CO)[C@@H]5[C@H](O)C[C@]43C)[C@@H]2C1`, the result in data set [1] was inactive.
Consider `CC1(C)CC[C@]2(C(=O)O)[C@H](O)C[C@]3(C)C(=CC[C@@H]4[C@@]5(C)C[C@H](O)[C@H](O[C@@H]6O[C@H](CO)[C@@H](O)[C@H](O)[C@H]6O)[C@@](C)(CO)[C@@H]5[C@H](O)C[C@]43C)[C@@H]2C1`, for which, in data set [1], the result was inactive.
A word on the inhibition: it is the share of the control response that was lost under treatment. For the compound `C[C@@H]1O[C@@H](O[C@@H]2[C@@H](O)[C@H](O[C@@H]3[C@@H](O)[C@@H](O)[C@H](O[C@H]4[C@H](OC(=O)[C@]56CCC(C)(C)C[C@H]5C5=CC[C@@H]7[C@@]8(C)C[C@H](O)[C@H](O[C@@H]9O[C@H](CO)[C@@H](O)[C@H](O)[C@H]9O)[C@@](C)(CO)[C@@H]8[C@H](O)C[C@@]7(C)[C@]5(C)C[C@H]6O)OC[C@H](O)[C@@H]4O)O[C@H]3C)OC[C@H]2O)[C@H](O)[C@H](O)[C@H]1O` [ARGANINE C], the inhibition at 20 µM in data set [1] (Human immunodeficiency virus 1, CHO) was 100%. The Activity entry with HeLa is on record as “Non-toxic”.
As to `C[C@@H]1O[C@@H](O[C@@H]2[C@@H](O)[C@H](O[C@@H]3[C@@H](O)[C@@H](O)[C@H](O[C@H]4[C@H](OC(=O)[C@]56CCC(C)(C)C[C@H]5C5=CC[C@@H]7[C@@]8(C)C[C@H](O)[C@H](O[C@@H]9O[C@H](C(=O)O)[C@@H](O)[C@H](O)[C@H]9O)[C@@](C)(CO)[C@@H]8[C@H](O)C[C@@]7(C)[C@]5(C)C[C@H]6O)OC[C@H](O)[C@@H]4O)O[C@H]3C)OC[C@H]2O)[C@H](O)[C@H](O)[C@H]1O` [TIEGHEMELIN], in the data set with HeLa, the Activity result was “Non-toxic”.
